Test results reported in patent publication US4771068A, “Mitomycin derivatives having anti-tumor and antibacterial utility” (priority 1985, dated 1988).
Values after ≈ are worked out from the molar mass of the structure shown.

Legend:
[1] = test system: Streptococcus faecalis ATCC 10541; experiment: Antibacterial activity (minimum growth inhibitory concentration), agar dilution method; format: cell-based; details: Enterococcus faecalis, ATCC10541; Streptococcus faecalis ATCC 10541, pH 7.0, agar dilution method; read-out: minimum growth inhibitory concentration, SF
Protocol: (§1) Antibacterial activities of Compounds (I) against various bacteria are shown by the minimum growth inhibitory concentration (μg/ml) in Table 3. The minimum growth inhibitory concentration was measured at pH 7.0 according to the agar dilution method. In the table, bacteria are indicated by the following letters.
SF: Streptococcus faecalis ATCC 10541

[2] = test system: Staphylococcus aureus ATCC 6538P; experiment: as above; format: cell-based; details: ATCC6538P, pH 7.0, agar dilution method, read-out: minimum growth inhibitory concentration, SA
Protocol: as §1
SA: Staphylococcus aureus ATCC 6538P

[3] = test system: Bacillus subtilis 10707; experiment: as above; format: cell-based; details: Bacillus subtilis 10707, pH 7.0, agar dilution method; read-out: minimum growth inhibitory concentration, BS
Protocol: as §1
BS: Bacillus subtilis 10707

[4] = test system: Klebsiella pneumoniae ATCC 10031; experiment: as above; format: cell-based; details: ATCC10031; Klebsiella pneumoniae ATCC 10031, pH 7.0, agar dilution method; read-out: minimum growth inhibitory concentration, KP
Protocol: as §1
KP: Klebsiella pneumoniae ATCC 10031

[5] = test system: Proteus vulgalis ATCC 6897; experiment: as above; format: cell-based; details: pH 7, read-out: minimum growth inhibitory concentration, PV
Protocol: as §1
PV: Proteus vulgalis ATCC 6897

[6] = test system: Sarcoma 180 solid tumour; experiment: animal or person; details: for CIc: CI of test compound divided by CI of mitomycin C as control in the same condition; for ED50: Mus musculus, Sarcoma-180, iv, 168 h; for CI (LD50/ED50): chemotherapeutic index
Description: CIc : Value given by division of CI of each test compound by CI of
determination of antitumour activity of the test compound. A CIc
5×10^6 cells of Sarcoma 180 solid tumour were intraperitoneally implanted into ddY mice. 7 days later, ascites cells were sampled. The cells were washed once with a sterilized physiological sodium chloride solution and were used to prepare a cell suspension containing 5×10^7 cells per ml with a sterilized physiological sodium chloride solution. On each occasion, 0.1 ml of the cell suspension was subcutaneously implanted into the right axilla of a male mouse (ddY strain; body weight 20±2 g).
The anti-tumour activity was determined in the following manner. 7 days after the implantation, the major axis (a) and the minor axis (b) of the tumour were measured to calculate a value of "a×b^2 /2" which corresponds to the volume of the tumour. The anti-tumour activity was expressed by the ratio (T/C) of the volume (T) of the tumours of the group of animals administered with the test compound to the corresponding volume (C) of tumours of the untreated animals.
On graph paper, T/C was indicated by an arithmetic scale on the longitudinal axis and the administered amount of the test compound was indicated by a logarithmic scale on the lateral axis.

[7] = Acute toxicity; details: mouse, in vivo, ip; ddY mice, intraperitoneally once, 14 days observation
Protocol: Each animal of the test group consisting of 5 ddY mice was administered intraperitoneally once with a test compound. […] The LD50 was determined by Beherns Kaerber's method.

[8] = test system: peripheral leucocytes; experiment: Effect on the peripheral leucocytes number; format: in vivo, mouse (ddY strain); details: minimum dose reducing peripheral leucocytes number to 4000/mm^3; tumour-carrying ddY mice, intraperitoneal, 4 days after administration
Protocol: WBC4000 : Minimum dose of a test compound which reduces the
peripheral leucocytes number to 4000/mm^3.
Sarcoma 180 solid tumour cells (5×10^6) were subcutaneously implanted into the right axilla of each mouse (body weight 20±2 g) of a group consisting of 5 male mice (ddY strain). 24 hours after implantation,a test compound was intraperitoneally administered to each animal. 4 days after the administration, blood (each 0.02 ml) was collected from the suborbital plexus vein of each tumour-carrying animal. The collected sample of blood was dispersed in 9.98 ml of Cell-Kit Seven solution. One drop of saponin solution was added to the sample to dissolve erythrocytes and then a microcell counter was used to count the number of leucocytes. […] The relationship between the number of peripheral leucocytes and the dose of the test compound was plotted and the dose (i.e., WBC4000) corresponding to 4000 peripheral leucocytes/mm^3 (about half the number of leucocytes of normal mice) was obtained.

SMILES	MIC [1] [µg/mL]	MIC [2] [µg/mL]	MIC [3] [µg/mL]	MIC [4] [µg/mL]	MIC [5] [µg/mL]	CIc [6]	ED50 [6] [mg/kg]	CI (LD50/ED50) [6]	LD50 at 336 h [7] [mg/kg]	WBC4000 [8] [mg/kg]
CC1=C(NCCSC(=O)c2ccc(Br)cc2)C(=O)C2=C(C1=O)N1C[C@H]3[C@H](N3C)[C@]1(O)[C@H]2COC(N)=O (stereo partly shown) [Compound 22]	25 (≈ 43.3 µM)	0.39 (≈ 0.675 µM)	< 0.049	> 100						
COc1ccc(C(=O)SCCNC2=C(C)C(=O)C3=C(C2=O)[C@@H](COC(N)=O)[C@@]2(OC)[C@H]4N[C@H]4CN32)cc1 [Compound 23]	0.16 (≈ 0.303 µM)	< 0.02	< 0.02	5 (≈ 9.46 µM)	10 (≈ 18.9 µM)	0.81	2.5	2.5	6.3	5
COc1ccc(C(=O)SCCNC2=C(C)C(=O)C3=C(C2=O)[C@H](COC(N)=O)[C@@]2(O)[C@@H]4[C@H](CN32)N4C)cc1 (stereo partly shown) [Compound 24]	100 (≈ 189 µM)	1.6 (≈ 3.03 µM)	1.6 (≈ 3.03 µM)			1.3	7.2	3.8	27.5	25.5
CC1=C(NCCSC(=O)c2ccc([N+](=O)[O-])cc2)C(=O)C2=C(C1=O)N1C[C@H]3[C@H](N3C)[C@]1(O)[C@H]2COC(N)=O (stereo partly shown) [Compound 25]	13 (≈ 23.9 µM)	3.1 (≈ 5.7 µM)	0.39 (≈ 0.717 µM)	13 (≈ 23.9 µM)	> 100	1.6	6.9	4.9	33.8	15.9
CC(=S)SCCNC1=C(C)C(=O)C2=C(C1=O)[C@H](COC(N)=O)[C@@]1(O)[C@@H]3[C@H](CN21)N3C (stereo partly shown) [Compound 27, 7-N-(2-dithioacetyloxyethyl)mitomycin D]	0.39 (≈ 0.862 µM)	0.2 (≈ 0.442 µM)	< 0.049	0.78 (≈ 1.72 µM)	3.1 (≈ 6.85 µM)	1.1	3.4	3.9	13.1	15.5
CO[C@@]12[C@H](COC(N)=O)C3=C(C(=O)C(C)=C(NCCSC(C)=S)C3=O)N1C[C@H]1[C@@H]2N1C (stereo partly shown) [Compound 28]	0.039 (≈ 0.0836 µM)	< 0.02	< 0.02	1.3 (≈ 2.79 µM)	2.5 (≈ 5.36 µM)	1.1	3.3	4.0	13.1	10.4
C=C1C2=C(C(=O)C(C)=C(NCCSC(C)=S)C2=O)N2C[C@H]3[C@H](N3C)[C@]12O (stereo partly shown) [Compound 29]	> 100	3.1 (≈ 7.92 µM)	1.6 (≈ 4.09 µM)	25 (≈ 63.9 µM)	13 (≈ 33.2 µM)					
CO[C@@]12[C@H](COC(N)=O)C3=C(C(=O)C(C)=C(NCCCCSC(C)=S)C3=O)N1C[C@@H]1N[C@@H]12 [Compound 30]	0.31 (≈ 0.645 µM)	0.31 (≈ 0.645 µM)	0.31 (≈ 0.645 µM)	1.3 (≈ 2.7 µM)	5 (≈ 10.4 µM)	> 1.1	37.7	> 2.7	> 100	58.1
CO[C@@]12[C@H](COC(N)=O)C3=C(C(=O)C(C)=C(NCCCCCCSC(C)=S)C3=O)N1C[C@@H]1N[C@@H]12 [Compound 31]	2.5 (≈ 4.91 µM)	1.3 (≈ 2.56 µM)	2.5 (≈ 4.91 µM)	2.5 (≈ 4.91 µM)	10 (≈ 19.7 µM)	> 1.5	28.1	> 3.6	> 100	27.5
CO[C@@]12[C@H](COC(N)=O)C3=C(C(=O)C(C)=C(N)C3=O)N1C[C@@H]1N[C@@H]12 [MMC, mitomycin C, reference compound]						1				2.4 to 6.1
